In patent publication US20170050957A1, “4-AMINO-6-(HETEROCYCLIC)PICOLINATES AND 6-AMINO-2-(HETEROCYCLIC)PYRIMIDINE-4-CARBOXYLATES AND THEIR USE AS HERBICIDES” (Dow AgroSciences LLC, priority 2013, published 2017):
Where two headings read alike, the source gives them in different places.

What was measured:
[1] = tested on: Key Broadleaf Weed and Crop Species; assay: Post-emergent Test II herbicidal activity (Table 15); format: in vivo; details: post-emergence, 336 h, 14 d; for pest or weed control at 35 g/ha: 35 g ai/ha; for pest or weed control at 70 g/ha: 70 g ai/ha; for pest or weed control at 140 g/ha: 140 g ai/ha
Method in brief: (§1)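 Greenhouse-grown seedlings at first/second true leaf receive a track spray at 187 L/ha, using a highest rate plus two-fold serial dilutions down to 1/16×. Watering is by subirrigation to avoid wash-off. Percent injury (0-100) is judged by eye at 14 d against untreated plants.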

[2] = tested on: Key Grass and Sedge Weeds as well as Grass Crops; assay: Post-emergent Test II herbicidal activity (Table 16); format: in vivo; details: post-emergence, 336 h, 14 d; for pest or weed control at 35 g/ha: 35 g ai/ha; for pest or weed control at 70 g/ha: 70 g ai/ha; for pest or weed control at 140 g/ha: 140 g ai/ha
Method in brief: as §1

[3] = Abutilon theophrasti, velvetleaf (Abutilon theophrasti), read-out: Visual Growth Reduction (%) 14 Days After Application, ABUTH
[4] = Amaranthus retroflexus, redroot pigweed (Amaranthus retroflexus), read-out: Visual Growth Reduction (%) 14 Days After Application, AMARE
[5] = Brassica napus, oilseed rape, canola (Brassica napus), read-out: Visual Growth Reduction (%) 14 Days After Application, BRSNN
[6] = Chenopodium album, lambsquarters (Chenopodium album), read-out: Visual Growth Reduction (%) 14 Days After Application, CHEAL
[7] = Euphorbia heterophylla, wild poinsettia (Euphorbia heterophylla), read-out: Visual Growth Reduction (%) 14 Days After Application, EPHHL
[8] = Helianthus annuus, sunflower (Helianthus annuus), read-out: Visual Growth Reduction (%) 14 Days After Application, HELAN
[9] = Cyperus esculentus, yellow nutsedge (Cyperus esculentus), read-out: Visual Growth Reduction (%) 14 Days After Application, CYPES
[10] = Echinochloa crus-galli, barnyardgrass (Echinochloa crus-galli), read-out: Visual Growth Reduction (%) 14 Days After Application, ECHCG
[11] = Oryza sativa, rice (Oryza sativa), read-out: Visual Growth Reduction (%) 14 Days After Application, ORYSA
[12] = Setaria faberi, giant foxtail (Setaria faberi), read-out: Visual Growth Reduction (%) 14 Days After Application, SETFA
[13] = Triticum aestivum, wheat, spring (Triticum aestivum), read-out: Visual Growth Reduction (%) 14 Days After Application, TRZAS
[14] = Zea mays, maize, corn (Zea mays), read-out: Visual Growth Reduction (%) 14 Days After Application, ZEAMX

SMILES | pest or weed control at 35 g/ha [1, 3] [%] | pest or weed control at 70 g/ha [1, 3] [%] | pest or weed control at 140 g/ha [1, 3] [%] | pest or weed control at 35 g/ha [1, 4] [%] | pest or weed control at 70 g/ha [1, 4] [%] | pest or weed control at 140 g/ha [1, 4] [%] | pest or weed control at 35 g/ha [1, 5] [%] | pest or weed control at 70 g/ha [1, 5] [%] | pest or weed control at 140 g/ha [1, 5] [%] | pest or weed control at 35 g/ha [1, 6] [%] | pest or weed control at 70 g/ha [1, 6] [%] | pest or weed control at 140 g/ha [1, 6] [%] | pest or weed control at 35 g/ha [1, 7] [%] | pest or weed control at 70 g/ha [1, 7] [%] | pest or weed control at 140 g/ha [1, 7] [%] | pest or weed control at 35 g/ha [1, 8] [%] | pest or weed control at 70 g/ha [1, 8] [%] | pest or weed control at 140 g/ha [1, 8] [%] | pest or weed control at 35 g/ha [2, 9] [%] | pest or weed control at 70 g/ha [2, 9] [%] | other results
C=Cc1c(C(=O)O)nc(-c2ccc3cc[nH]c3c2F)c(F)c1N [Compound 1.19] | 95 to 100 | 95 to 100 | 95 to 100 | 95 to 100 | 95 to 100 | 95 to 100 | 95 to 100 | 95 to 100 | 95 to 100 | 95 to 100 | 95 to 100 | 95 to 100 | 95 to 100 | 95 to 100 | 95 to 100 | 60 to 74 | 75 to 84 | 95 to 100 | 85 to 94 | 75 to 84 | pest or weed control at 140 g/ha [2, 9]: 95 to 100%; pest or weed control at 35 g/ha [2, 10]: 85 to 94%; pest or weed control at 70 g/ha [2, 10]: 85 to 94%; pest or weed control at 140 g/ha [2, 10]: 95 to 100%; pest or weed control at 35 g/ha [2, 11]: 30 to 44%; pest or weed control at 70 g/ha [2, 11]: 45 to 59%; pest or weed control at 140 g/ha [2, 11]: 60 to 74%; pest or weed control at 35 g/ha [2, 12]: 60 to 74%; pest or weed control at 70 g/ha [2, 12]: 75 to 84%; pest or weed control at 140 g/ha [2, 12]: 85 to 94%; pest or weed control at 35 g/ha [2, 13]: 60 to 74%; pest or weed control at 70 g/ha [2, 13]: 75 to 84%; pest or weed control at 140 g/ha [2, 13]: 75 to 84%; pest or weed control at 35 g/ha [2, 14]: 60 to 74%; pest or weed control at 70 g/ha [2, 14]: 60 to 74%; pest or weed control at 140 g/ha [2, 14]: 85 to 94%
COc1c(N)nc(-c2ccc3cc[nH]c3c2F)nc1C(=O)O [Compound 1.35] | 0 to 29 | 0 to 29 | 0 to 29 | 75 to 84 | 85 to 94 | 95 to 100 | 95 to 100 | 95 to 100 | 95 to 100 | 0 to 29 | 0 to 29 | 85 to 94 | 75 to 84 | 75 to 84 | 85 to 94 | 30 to 44 | 60 to 74 | 95 to 100 | 0 to 29 | 0 to 29 | pest or weed control at 140 g/ha [2, 9]: 0 to 29%; pest or weed control at 35 g/ha [2, 10]: 0 to 29%; pest or weed control at 70 g/ha [2, 10]: 0 to 29%; pest or weed control at 140 g/ha [2, 10]: 0 to 29%; pest or weed control at 35 g/ha [2, 11]: 0 to 29%; pest or weed control at 70 g/ha [2, 11]: 0 to 29%; pest or weed control at 140 g/ha [2, 11]: 0 to 29%; pest or weed control at 35 g/ha [2, 12]: 0 to 29%; pest or weed control at 70 g/ha [2, 12]: 0 to 29%; pest or weed control at 140 g/ha [2, 12]: 0 to 29%; pest or weed control at 35 g/ha [2, 13]: 0 to 29%; pest or weed control at 70 g/ha [2, 13]: 30 to 44%; pest or weed control at 140 g/ha [2, 13]: 45 to 59%; pest or weed control at 35 g/ha [2, 14]: 0 to 29%; pest or weed control at 70 g/ha [2, 14]: 0 to 29%; pest or weed control at 140 g/ha [2, 14]: 0 to 29%
COc1c(N)nc(-c2cc3[nH]ccc3cc2F)nc1C(=O)O [Compound 1.37] | 0 to 29 | 0 to 29 | 0 to 29 | 0 to 29 | 0 to 29 | 0 to 29 | 30 to 44 | 60 to 74 | 75 to 84 | 0 to 29 | 0 to 29 | 0 to 29 | 0 to 29 | 0 to 29 | 0 to 29 | 0 to 29 | 0 to 29 | 0 to 29 | 0 to 29 | 0 to 29 | pest or weed control at 140 g/ha [2, 9]: 0 to 29%; pest or weed control at 35 g/ha [2, 10]: 0 to 29%; pest or weed control at 70 g/ha [2, 10]: 0 to 29%; pest or weed control at 140 g/ha [2, 10]: 0 to 29%; pest or weed control at 35 g/ha [2, 11]: 0 to 29%; pest or weed control at 70 g/ha [2, 11]: 0 to 29%; pest or weed control at 140 g/ha [2, 11]: 0 to 29%; pest or weed control at 35 g/ha [2, 12]: 0 to 29%; pest or weed control at 70 g/ha [2, 12]: 0 to 29%; pest or weed control at 140 g/ha [2, 12]: 0 to 29%; pest or weed control at 35 g/ha [2, 13]: 0 to 29%; pest or weed control at 70 g/ha [2, 13]: 0 to 29%; pest or weed control at 140 g/ha [2, 13]: 0 to 29%; pest or weed control at 35 g/ha [2, 14]: 0 to 29%; pest or weed control at 70 g/ha [2, 14]: 0 to 29%; pest or weed control at 140 g/ha [2, 14]: 0 to 29%
